Source: publication PMC7073229, “Novel Quinoline Compounds Active in Cancer Cells through Coupled DNA Methyltransferase Inhibition and Degradation” (Cancers, 2020)
Like-named read-outs stand apart in the source and are kept apart here.

Assays:
[1] = test system: U937 AML cells; experiment: Antiproliferative activity, MTT; format: cell-based; conditions: Homo sapiens, U-937, 48 h treatment, read-out: Antiproliferative Activity (IC50 ± SD) U937
Procedure: (§1) U937 histiocytic lymphoma, HL60 acute promyelocytic leukemia, H1299 lung adenocarcinoma, MCF7 breast carcinoma, HT1080 fibrosarcoma, M14 melanoma, HeLa epithelial cervix carcinoma and peripheral blood B lymphocyte AHH1 human cell lines were obtained from the Deutsche Sammlung für Mikroorganismen and Zellkulturen (DSZM, Braunschweig, Germany) and were maintained in RPMI 1640 medium contained 10% fetal bovine serum (FBS), 2 mM L-glutamine, and antibiotics in a humidified atmosphere with 5% CO2 at 37 °C. HCT116 (ATCC, VA, USA) cells were propagated in Dulbecco’s modified Eagle medium (DMEM) (Euroclone, Milan, Italy) with 10% fetal bovine serum (FBS; Euroclone, Milan, Italy), 2 mM L-glutamine (Euroclone, Milan, Italy), and antibiotics (100 U/mL penicillin, 100 µg/mL streptomycin) (Euroclone, Milan, Italy). The experiments were performed with early (3–20) cell passages. Cell lines were treated with compounds at the indicated concentrations in the exponential growth phase.
(§2) Then, increasing concentrations of different compounds (ranging from 0.01 to 100 μM) were added, and cell proliferation was evaluated by a MTT assay after 48 h. Cells exposed to DMSO were used as control. The effect of compounds was evaluated using the CellTiter-Glo luminescent cell viability assay (Promega, Madison, WI, USA) according to the manufacturer’s instructions. For HCT116, 5 × 10^4 cells/well were plated in 24-well plate and treated, in duplicate, with compounds at several concentrations for 24 and 48 h of induction. After treatments, MTT solution was added for 3 h at 0.5 mg/mL, the obtained crystals were dissolved in DMSO (Sigma-Aldrich, Milan, Italy), and the absorbance was read at a wavelength of 570 nm with reader TECAN M-200. All the experiments were performed in triplicate and repeated at least three times.
(§3) IC50 values of compounds against cellular viability were determined by using nonlinear regression fitting curves with GraphPad Prism 8. The t-test used for statistical analyses was performed with GraphPad Prism 8. All the tests were one-tailed and a p-value < 0.05 was considered statistically significant.

[2] = test system: HL60 APL cells; experiment: Antiproliferative activity, MTT; format: cell-based; conditions: Homo sapiens, HL-60, 48 h treatment, read-out: Antiproliferative Activity (IC50 ± SD) HL60
Procedure: as §1, §2, §3

[3] = target: T1, human DNMT1 (hDNMT1) (Homo sapiens, UniProt P26358); experiment: DNMT1 assay ([methyl-3H]SAM, Flashplate); format: biochemical; conditions: mean of at least two independent experiments; read-out: Enzyme Inhibition (EC50 ± SD) hDNMT1
T1 construct: His; made in house
T1 sequence (P26358 whole entry): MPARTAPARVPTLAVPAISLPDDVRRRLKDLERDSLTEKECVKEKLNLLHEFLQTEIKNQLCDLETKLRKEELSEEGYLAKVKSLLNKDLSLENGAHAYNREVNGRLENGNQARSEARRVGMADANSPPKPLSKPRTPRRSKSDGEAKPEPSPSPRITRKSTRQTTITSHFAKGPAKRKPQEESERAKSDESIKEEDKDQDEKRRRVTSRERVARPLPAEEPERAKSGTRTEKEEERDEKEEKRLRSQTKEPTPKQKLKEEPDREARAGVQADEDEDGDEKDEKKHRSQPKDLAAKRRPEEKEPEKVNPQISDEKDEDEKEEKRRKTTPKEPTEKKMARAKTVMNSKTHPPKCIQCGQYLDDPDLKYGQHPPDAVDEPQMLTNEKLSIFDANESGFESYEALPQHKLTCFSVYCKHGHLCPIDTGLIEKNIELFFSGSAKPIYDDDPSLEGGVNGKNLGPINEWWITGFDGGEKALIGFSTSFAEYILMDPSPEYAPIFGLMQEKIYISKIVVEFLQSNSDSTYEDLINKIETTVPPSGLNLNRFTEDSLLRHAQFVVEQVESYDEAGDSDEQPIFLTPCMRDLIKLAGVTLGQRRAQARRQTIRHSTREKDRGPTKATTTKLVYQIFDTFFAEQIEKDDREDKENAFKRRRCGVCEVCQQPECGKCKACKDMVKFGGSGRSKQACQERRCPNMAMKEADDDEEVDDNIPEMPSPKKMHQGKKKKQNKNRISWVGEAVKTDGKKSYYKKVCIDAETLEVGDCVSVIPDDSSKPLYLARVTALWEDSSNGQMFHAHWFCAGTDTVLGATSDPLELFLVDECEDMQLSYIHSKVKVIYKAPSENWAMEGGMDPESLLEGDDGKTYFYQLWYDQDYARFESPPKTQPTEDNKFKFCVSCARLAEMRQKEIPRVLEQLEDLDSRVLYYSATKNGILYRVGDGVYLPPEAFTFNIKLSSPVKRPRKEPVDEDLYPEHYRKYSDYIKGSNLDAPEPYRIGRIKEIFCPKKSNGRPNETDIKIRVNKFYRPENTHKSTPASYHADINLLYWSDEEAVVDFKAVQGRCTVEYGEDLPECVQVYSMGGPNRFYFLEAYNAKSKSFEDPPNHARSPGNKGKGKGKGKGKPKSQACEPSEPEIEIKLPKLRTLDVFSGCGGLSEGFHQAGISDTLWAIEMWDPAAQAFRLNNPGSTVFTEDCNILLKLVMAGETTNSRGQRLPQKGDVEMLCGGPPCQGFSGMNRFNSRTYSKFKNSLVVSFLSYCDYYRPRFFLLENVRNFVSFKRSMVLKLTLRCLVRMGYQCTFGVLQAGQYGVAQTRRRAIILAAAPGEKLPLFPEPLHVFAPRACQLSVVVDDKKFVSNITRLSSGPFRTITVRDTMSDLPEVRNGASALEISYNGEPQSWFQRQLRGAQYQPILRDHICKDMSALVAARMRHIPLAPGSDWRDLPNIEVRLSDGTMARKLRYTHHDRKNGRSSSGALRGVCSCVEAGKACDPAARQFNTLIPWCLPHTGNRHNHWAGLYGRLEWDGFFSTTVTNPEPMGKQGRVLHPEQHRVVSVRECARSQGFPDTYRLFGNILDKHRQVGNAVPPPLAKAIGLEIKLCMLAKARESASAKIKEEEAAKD
Procedure: His-DNMT1 (182 kDa, human) was cloned, expressed, and purified as described by Lee et al.. The DNMT1 assay was performed according to Gros et al.. […] The reaction was incubated 2 h at 37 °C, then 8 µL of the solution are transferred into a streptavidin 96-well scintillant coated Flashplate containing 190 µL of 20 mM SAH in 50 mM Tris–HCl (pH 7.4). The Flashplate is agitated for 1 h at room temperature and washed. The plate is read with TopCount (PerkinElmer). In this assay, the negative and positive controls were defined as wells without enzyme and wells with only DMSO, respectively.

[4] = target: T2, C-terminal catalytic domain of human DNMT3A (hDNMT3A) (Homo sapiens, UniProt Q9Y6K1); experiment: DNMT3A restriction-based fluorescence assay; format: biochemical; conditions: mean of at least two independent experiments; read-out: Enzyme Inhibition (EC50 ± SD) hDNMT3A
T2 construct: the C-terminal catalytic domain of human DNMT3A (hDNMT3A)
T2 sequence (Q9Y6K1 634-912 limits assumed): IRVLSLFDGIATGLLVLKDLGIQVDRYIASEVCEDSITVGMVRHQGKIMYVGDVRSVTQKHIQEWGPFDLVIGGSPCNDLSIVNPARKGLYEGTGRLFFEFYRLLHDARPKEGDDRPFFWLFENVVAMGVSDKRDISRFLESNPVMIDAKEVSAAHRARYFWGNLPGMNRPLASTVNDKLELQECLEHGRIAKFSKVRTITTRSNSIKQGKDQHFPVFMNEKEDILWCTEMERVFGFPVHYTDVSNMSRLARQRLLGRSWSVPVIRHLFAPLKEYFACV
Procedure: DNMT3A enzyme inhibition was adapted from the restriction-based fluorescence assay protocol described in Ceccaldi et al.. Briefly, a biotin-labelled oligonucleotide at the 5’ end is hybridized to his complementary strand labelled at the 3’ end with 6-carboxyfluorescein. The DNA duplex containing only one single CpG site overlapping with a restriction site of a methylation sensitive restriction enzyme is transferred in the wells coated with avidin. The methylation reaction is performed by adding human C-terminal DNMT3A at the final concentration of 4 ng/µL in a total volume of 50 µL in the presence of the inhibitors at various concentrations and the co-substrate SAM at the final concentration of 20 µM. The plate was incubated for 1 h at 37 °C, washed, and added with the methylation sensitive restriction enzyme HpyCH4IV, incubated for 1 h further at 37 °C, washed and the fluorescence measured with a PerkinElmer Envision Multilabel Plate Reader. The data are expressed as percentage of inhibition vs. log concentration (M). Data are normalized referring to the “restriction control” (wells coated with labelled duplex not treated nor exposed to DNMT3A, but only cleaved by HpyCH4IV) as the maximum of inhibition (100%) and to the “DMSO control” (wells coated with labelled duplex but treated just with 0.1% DMSO exposed to DNMT3A and then to HpyCH4IV) as the minimum of inhibition (0%; total methylation).

[5] = test system: H1299 human non-small cell lung carcinoma; experiment: Antiproliferative activity, MTT; format: cell-based; conditions: 48 h treatment, read-out: Antiproliferative Activity (IC50 ± SD) H1299
Procedure: as §1, §2, §3

[6] = test system: HeLa epithelial cervix carcinoma; experiment: Antiproliferative activity, MTT; format: cell-based; conditions: Homo sapiens, 48 h treatment, read-out: Antiproliferative Activity (IC50 ± SD) HeLa
Procedure: as §1, §2, §3

[7] = test system: HCT116 human colorectal carcinoma; experiment: Antiproliferative activity, MTT; format: cell-based; conditions: HCT-116, 48 h treatment, read-out: Antiproliferative Activity (IC50 ± SD) HCT116
Procedure: as §1, §2, §3

[8] = test system: HT1080 human fibrosarcoma; experiment: Antiproliferative activity, MTT; format: cell-based; conditions: HT-1080, 48 h treatment, read-out: Antiproliferative Activity (IC50 ± SD) HT1080
Procedure: as §1, §2, §3

[9] = test system: M14 human melanoma; experiment: Antiproliferative activity, MTT; format: cell-based; conditions: 48 h treatment, read-out: Antiproliferative Activity (IC50 ± SD) M14
Procedure: as §1, §2, §3

[10] = test system: KRAS21R G-quadruplex DNA; experiment: FRET melting assay, G-quadruplex DNA; format: binding
Procedure: (§4) Experimental procedure for Fluorescence Resonance Energy Transfer (FRET) melting assay Oligonucleotides labeled at 5’ with FAM (6-carboxyfluorescein) as donor fluorophore and TAMRA (6 - carboxytetramethylrhodamine) at 3’ as the acceptor fluorophore were purchased from STAB VIDA (Portugal). Each oligonucleotide was initial ly diluted to 100 µM in water (Molecular Biology Reagent, Sigma). Stock solutions of 20 µM and subsequent dilutions were made with FRET buffer (60 mM KCl, potassium cacodylate, pH 7.4). Tagged oligonucleotides at 0.4 µM were annealed by heating at 90 -95 °C for 10 min, followed by slow cooling to room temperature. St ock solutions of compounds (1 mM) were prepared in 10% DMSO. Subsequent dilutions were performed using FRET buffer. Annealed DNA (50 µL) and test compound solutions (50 µL) were distributed across 96-well RT-PCR plates (PCR-96-FLT-C, Axygen, Inc). Fluorescence readings (performed in a 7300 RT -PCR equipment from Applied Biosystems) were taken at intervals of 0.5 °C in the range 31 –95 °C, with the temperature being maintained for 30 seconds prior to each reading. Experiments were performed in triplicate. Fina l analysis of the data was carried out with GraphPad Prism v.5.0 (GraphPad Software Inc., La Jolla, CA, USA).
(§5) The advanced curve-fitting function in GraphPad Prism (nonlinear regression fit) was used for calculation of ΔTm values. Only results with fitting r2 values > 0.75 (std error < 0.25) were considered.
(§6) Table S2. Synthetic oligonucleotides used in FRET experiments.

[11] = test system: F21T G-quadruplex DNA; experiment: FRET melting assay, G-quadruplex DNA; format: binding
Procedure: as §4, §5, §6

[12] = test system: U937 AML cells; conditions: MTT, 48 h, read-out: Antiproliferative Activity (IC50 ± SD) U937, cited from earlier work
[13] = test system: HL60 APL cells; conditions: MTT, 48 h, read-out: Antiproliferative Activity (IC50 ± SD) HL60, cited from earlier work
[14] = test system: methylated UCHL1 promoter (pUCHL1) in HCT116 cells; experiment: UCHL1 promoter demethylation assay (EGFP induction, FACS); format: cell-based, human; conditions: HCT116, 0.5 µM, five days
Procedure: The assay was performed as described in [29]. Briefly, human colon cancer HCT116 (ATCC, VA, USA) cells were grown in Dulbecco’s Modified Eagle Medium (DMEM; Euroclone, Milan, Italy) supplemented with 10% fetal bovine serum (FBS; Euroclone, Milan, Italy), 2 mM L-glutamine (Euroclone), and antibiotics (100 U/mL penicillin, 100 µg/mL streptomycin) (Euroclone). The pUMLIEP vector (composed by MetLuc-IRES-EGFP construct upon the control of the ubiquitin carboxyl-terminal hydrolase L1 (UCHL1)) was linearized and methylated by with ClaI and SssI-methylase enzymes (New England Biolabs, Milan, Italy). After, methylated pUMLIEP was transfected into HCT116 cells following the protocol described in [30]. […] On day 5, cells were observed under by a fluorescent microscope (Cytation 5 Cell Imaging Multi-Mode Reader (BioTeK Milan, Italy) and BD Accuri flow cytometers. Nuclei were counterstained with DAPI (10 µg/mL, Invitrogen, Tournai, Belgium).

Row | IC50 [1] | IC50 [2] | EC50 [3] | EC50 [4] | Compound | IC50 [5] | IC50 ([5]; Homo sapiens, NCI-H1299, 48 h) | IC50 [6] | IC50 [7] | IC50 [8] | IC50 [9] | KRAS ∆Tm ([10]; 5 µM) | KRAS ∆Tm ([10]; 10 µM) | F21T ∆Tm ([11]; 5 µM) | F21T ∆Tm ([11]; 10 µM) | IC50 ([12]; reference compounds) | IC50 ([13]; reference compounds) | IC50 ([12]; reference compound) | IC50 ([13]; reference compound) | pUCHL1 demethylation, EGFP-positive cells (FACS R1) [14]
1 | 25.8 ± 3.2 µM | 36 ± 4 µM | 35 ± 7 µM | 31 ± 6 µM | Cc1cc(Nc2cccc(CNC(=O)c3cccc(Nc4ccnc5ccccc45)c3)c2)nc(N)n1 [Compound 1c] | – | – | – | – | – | – | – | – | – | – | – | – | – | – | –
2 | – | – | – | – | O=C(Nc1ccc(Nc2ccnc3ccccc23)cc1)c1ccc(Nc2ccnc3ccccc23)cc1 [Compound 2, reference compound] | 11.4 ± 1.8 µM | 11 µM | 52 ± 5.7 µM | 13.3 ± 2.1 µM | 17 ± 2.1 µM | 80 ± 9.1 µM | 1.0 ºC | 9.6 ºC | 0.6 ºC | 6.2 ºC | 6.6 ± 0.9 µM | 65 ± 8.1 µM | – | – | –
3 | – | – | – | – | Cc1cc(Nc2ccc(NC(=O)c3ccc(Nc4cc(C)nc(N)n4)cc3)cc2)nc(N)n1 [Compound 3] | – | – | – | – | – | – | – | – | – | – | 60 ± 8.2 µM | 119 ± 12.9 µM | – | – | –
4 | – | – | – | – | O=C(Nc1ccc(NC(=O)c2ccc(Nc3ccnc4ccccc34)cc2)cc1)OCc1ccccc1 [Compound 4, reference compound] | – | 5.9 ± 0.8 µM | 3.2 ± 0.5 µM | 8.6 ± 1 µM | 1.7 ± 0.2 µM | 2.9 ± 0.4 µM | 1 ºC | 10.4 ºC | 2.7 ºC | 6.9 ºC | – | – | 2.3 ± 0.4 µM | 8.3 ± 1 µM | –
5 | – | – | – | – | Cc1cc(Nc2ccc(NC(=O)c3ccc(Nc4ccnc5ccccc45)cc3)cc2)nc(N)n1 [SGI-1027, reference compound] | – | – | – | – | – | – | 6.7 ºC | 8.7 ºC | 1.9 ºC | 7.2 ºC | 0.7 ± 0.08 µM | 0.7 ± 0.16 µM | – | – | 32.9%
